Laboratory results from the supplement of paper PMC4862054.

Legend:
[1] = test system: BT-549; assay: normalised viability (% of control), CellTiter-Blue; higher = more viable cells (about 100 = DMSO control); conditions: 100 nM; incubation time: 72 h
Method in brief: (§1)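 Each value is normalised viability at a single listed concentration of the series. Breast cancer cell lines in 384-well plates were incubated 72 h with compound and read by CellTiter-Blue fluorescence at 560/590 nm, with vehicle set to 100 and a positive kill control to 0 on every plate.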

[2] = test system: CAL-148; assay: as above; conditions: 10 nM; incubation time: 72 h
Method in brief: as §1

[3] = test system: MDA-MB-453; assay: as above; conditions: 10 nM; incubation time: 72 h
Method in brief: as §1

[4] = test system: MFM-223; assay: as above; conditions: 100 nM; incubation time: 72 h
Method in brief: as §1

[5] = test system: BT-474; assay: as above; conditions: incubation time: 72 h
Method in brief: as §1

[6] = test system: BT-549; assay: as above; conditions: incubation time: 72 h
Method in brief: as §1

[7] = test system: CAL-120; assay: as above; conditions: incubation time: 72 h
Method in brief: as §1

[8] = test system: CAL-148; assay: as above; conditions: incubation time: 72 h
Method in brief: as §1

[9] = test system: CAL-51; assay: as above; conditions: incubation time: 72 h
Method in brief: as §1

[10] = test system: CAL-85-1; assay: as above; conditions: incubation time: 72 h
Method in brief: as §1

[11] = test system: DU-4475; assay: as above; conditions: incubation time: 72 h
Method in brief: as §1

[12] = test system: HCC1143; assay: as above; conditions: incubation time: 72 h
Method in brief: as §1

[13] = test system: HCC1599; assay: as above; conditions: incubation time: 72 h
Method in brief: as §1

[14] = test system: HCC1937; assay: as above; conditions: incubation time: 72 h
Method in brief: as §1

[15] = test system: HDQ-P1; assay: as above; conditions: incubation time: 72 h
Method in brief: as §1

[16] = test system: Hs578T; assay: as above; conditions: incubation time: 72 h
Method in brief: as §1

[17] = test system: MDA-MB-231; assay: as above; conditions: incubation time: 72 h
Method in brief: as §1

[18] = test system: MDA-MB-436; assay: as above; conditions: incubation time: 72 h
Method in brief: as §1

[19] = test system: MDA-MB-453; assay: as above; conditions: incubation time: 72 h
Method in brief: as §1

[20] = test system: MDA-MB-468; assay: as above; conditions: incubation time: 72 h
Method in brief: as §1

[21] = test system: MFM-223; assay: as above; conditions: incubation time: 72 h
Method in brief: as §1

[22] = test system: SK-BR-3; assay: as above; conditions: incubation time: 72 h
Method in brief: as §1

[23] = test system: CAL-120; assay: drug sensitivity score (DSS), CellTox Green (DSS (AUC-based score)); higher = stronger drug effect (viability inhibition or cytotoxicity); extreme values may be limits of the assay; conditions: incubation time: 72 h
Method in brief: (§2)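 Plates with 384 wells held compound at 5 concentrations in 10-fold steps over a 10,000-fold range specific to each compound. Breast cancer cell lines were added in 20 µl suspension and incubated 72 h, then read for CellTox Green and CellTiter-Glo signals, with each plate normalised to 0.1 % DMSO and a positive kill control. The drug sensitivity score is based on the area under the fitted dose-response curve.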

[24] = test system: CAL-148; assay: as above; conditions: incubation time: 72 h
Method in brief: as §2

C[C@]12CC[C@@H]3c4ccc(O)cc4C[C@@H](CCCCCCCCC[S+]([O-])CCCC(F)(F)C(F)(F)F)[C@H]3[C@@H]1CC[C@@H]2O (stereo not given in full) [Fulvestrant]
Conditions	drug sensitivity score	normalised viability [%]
[1]	–	94.8
[2]	–	86.5
[3]	–	81.3
[4]	–	70.4
[23]	0	–
[24]	0	–

normalised viability [%]
Conditions	3 nM	10 nM	30 nM	100 nM	1000 nM	10000 nM
[5]	–	94.7	–	–	88.4	107
[6]	–	74.7	–	–	86.5	74.8
[7]	–	79.2	–	–	90.7	87.6
[8]	89	–	87.5	87.3	–	–
[9]	116	–	107	109	–	–
[10]	91.8	–	91.7	90.3	–	–
[11]	91.6	–	78	91.5	–	–
[12]	–	76.6	–	–	81.5	78.1
[13]	–	93.9	–	–	82.6	92.4
[14]	–	88.3	–	–	85.5	88.3
[15]	83.7	–	92.2	94	–	–
[16]	–	103	–	–	91.7	86.2
[17]	–	105	–	–	99.7	90.2
[18]	–	94.4	–	–	97.5	90.6
[19]	108	–	81.1	93.7	–	–
[20]	–	97.5	–	–	104	83.6
[21]	–	67.2	–	–	77.6	45.2
[22]	–	76.9	–	–	109	84.5

O=P1(NCCCl)OCCCN1CCCl (stereo not given) [Ifosfamide]
Conditions	drug sensitivity score	normalised viability [%]
[1]	–	115
[2]	–	92.2
[3]	–	99.8
[4]	–	81.2
[23]	0	–
[24]	0	–

normalised viability [%]
Conditions	3 nM	10 nM	30 nM	100 nM	1000 nM	10000 nM
[5]	–	114	–	–	112	120
[6]	–	79.4	–	–	90.8	96.7
[7]	–	88.7	–	–	99.3	85.2
[8]	89.8	–	92	93	–	–
[9]	114	–	110	107	–	–
[10]	88.3	–	89.1	95.7	–	–
[11]	88.5	–	101	81.9	–	–
[12]	–	80.1	–	–	82.4	91.1
[13]	–	100	–	–	93.9	89.7
[14]	–	84	–	–	74.6	97.6
[15]	94	–	93.9	103	–	–
[16]	–	102	–	–	102	115
[17]	–	101	–	–	97.3	109
[18]	–	96.6	–	–	109	102
[19]	132	–	87.3	106	–	–
[20]	–	110	–	–	120	103
[21]	–	87.1	–	–	91.6	97.3
[22]	–	109	–	–	117	97.8

CC(C)Cn1cnc2c(N)nc3ccccc3c21 [Imiquimod]
Conditions	drug sensitivity score	normalised viability [%]
[1]	–	96.1
[2]	–	105
[3]	–	112
[4]	–	91.2
[23]	0	–
[24]	0	–

normalised viability [%]
Conditions	3 nM	10 nM	30 nM	100 nM	1000 nM	10000 nM
[5]	–	104	–	–	115	102
[6]	–	94.5	–	–	103	78.7
[7]	–	97.9	–	–	97.2	105
[8]	93.1	–	102	98.5	–	–
[9]	103	–	97.9	98.1	–	–
[10]	100	–	90.6	105	–	–
[11]	97	–	101	99	–	–
[12]	–	96.5	–	–	99.9	94.1
[13]	–	102	–	–	100	109
[14]	–	86.2	–	–	82.5	88.5
[15]	91.7	–	92	96.6	–	–
[16]	–	105	–	–	105	84.9
[17]	–	84.8	–	–	89.3	107
[18]	–	94.2	–	–	92.3	96.6
[19]	94.6	–	105	107	–	–
[20]	–	102	–	–	103	107
[21]	–	108	–	–	98.3	102
[22]	–	85	–	–	91.2	115
